Test results: patent US6355799B1, “Substituted benzene compounds, process for their preparation, and herbicidal and defoliant compositions containing them” (ISK Americas Incorporated, priority 1997, dated 2002)

What was measured:
Type in all cases: in vivo
[1] = test system: redroot pigweed (Amaranthus retroflexus, AMARE); test: Pre-emerge test, greenhouse herbicide activity screening; conditions: pre-emerge, 14 days after application, scale 0-100
From the text: (§1) A standard greenhouse herbicide activity screening system was used to evaluate the herbicidal efficacy and crop safety of these test compounds. Seven broadleaf weed species including redroot pigweed (Amaranthus retroflexus, AMARE, velvetleaf (Abutilon theophrasti, ABUTH), sicklepod (Cassia obtusifolia, CASOB), ivyleaf morningglory (Ipomoea hederacea, IPOHE), lambsquarters (Chenopodium album, CHEAL), common ragweed (Ambrosia artemisizfolia L., AMBEL), and cocklebur (Xanthium strumarium, XANST) were used as test species. Four grass weed species including green foxtail (Setaria viridis, SETVI), barnyardgrass (Echinochloa crus-galli, ECHCG), johnsongrass (Sorghum halepense, SORHA), and large crabgrass (Digitaria sanguinalis, DIGSA) were also used. In addition, three crop species, field corn (Zea mays L., var. Dekalb 535, CORN), soybean (Glycine max L., var. Pella 86, SOY), and is upland rice (Oryza sp., var. Tebonnet, RICE) were included.
(§2) All plants were grown in 10 cm square plastic pots which were filled with a sandy loam soil mix. For pre-emerge tests, seeds were planted one day prior to application of the test compounds. For post-emerge tests, seeds were planted 8-21 days prior to the test to allow emergence and good foliage development prior to application of the test substances. At the time of the post-emerge application, plants of all species were usually at the 2-3 leaf stage of development.
All test compounds Were dissolved in acetone and applied to the test units in a volume of 187 l /ha. […] Plants were arranged on a shelf so that the top of the canopy (post-emerge) or top of the soil surface (pre-emerge) was 40-45 cm below the nozzle. Pressurized air was used to force the test solution through the nozzle as it was mechanically advanced (via electrically driven chain drive) over the top of all test plants/pots. This application simulates a typical commercial field herbicide application.
(§3) In the post-emerge test, a commercial non-ionic surfactant was also included (0.25% v/v) to enhance wetting of the leaf surfaces of target plants. Immediately after application, test units of the pre-emerge applications were watered at the soil surface to incorporate the test materials. Subsequently, these test units were bottom-watered. Post-emerge test units were always bottom-watered.
(§4) At 14 days after application of the test materials, phytotoxicity ratings were recorded. A rating scale of 0-100 was used as previously described in Research Methods in Weed Science, 2nd edition, B. Truelove, Ed., Southern Weed Science Society, Auburn University, Auburn, Ala. 1977. Briefly, “0” corresponds to no damage and “100” corresponds to complete death of all plants in the test unit. This scale was used both to determine efficacy against weed species and damage to crop species. Herbicide activity data for various compounds of this invention, which are shown by compound No. in Tables 1-8, are shown in Tables 11 and 12.

[2] = test system: lambsquarters (Chenopodium album, CHEAL); test: as above; conditions: pre-emerge, 14 days after application, scale 0-100
From the text: as §1, §2
(§5) All test compounds Were dissolved in acetone and applied to the test units in a volume of 187 l /ha. Test materials were applied at rates ranging from 15 g ai/ha to 1000 g ai/ha using a track sprayer equipped with a TJ8001E even flow flat fan spray nozzle. Plants were arranged on a shelf so that the top of the canopy (post-emerge) or top of the soil surface (pre-emerge) was 40-45 cm below the nozzle. Pressurized air was used to force the test solution through the nozzle as it was mechanically advanced (via electrically driven chain drive) over the top of all test plants/pots. This application simulates a typical commercial field herbicide application.
as §3, §4

[3] = test system: sicklepod (Cassia obtusifolia, CASOB); test: as above; conditions: pre-emerge, 14 days after application, scale 0-100
From the text: as §1, §2, §5, §3, §4

[4] = test system: velvetleaf (Abutilon theophrasti, ABUTH); test: as above; conditions: pre-emerge, 14 days after application, scale 0-100
From the text: as §1, §2, §5, §3, §4

[5] = test system: ivyleaf morningglory (Ipomoea hederacea, IPOHE); test: as above; conditions: pre-emerge, 14 days after application, scale 0-100
From the text: as §1, §2, §5, §3, §4

[6] = test system: barnyardgrass (Echinochloa crus-galli, ECHCG); test: as above; conditions: pre-emerge, 14 days after application, scale 0-100
From the text: as §1, §2, §5, §3, §4

[7] = test system: green foxtail (Setaria viridis, SETVI); test: as above; conditions: pre-emerge, 14 days after application, scale 0-100
From the text: as §1, §2, §5, §3, §4

[8] = test system: large crabgrass (Digitaria sanguinalis, DIGSA); test: as above; conditions: pre-emerge, 14 days after application, scale 0-100
From the text: as §1, §2, §5, §3, §4

[9] = test system: field corn (Zea mays L., var. Dekalb 535, CORN); test: Pre-emerge test, crop safety; conditions: pre-emerge, 14 days after application, scale 0-100
From the text: as §1, §2, §5, §3, §4

[10] = test system: upland rice (Oryza sp., var. Tebonnet, RICE); test: Pre-emerge test, crop safety; conditions: pre-emerge, 14 days after application, scale 0-100
From the text: as §1, §2, §5, §3, §4

[11] = test system: lambsquarters (Chenopodium album, CHEAL); test: Post-emerge test, greenhouse herbicide activity screening; conditions: post-emerge, 14 days after application, rating scale 0-100
From the text: as §1, §2, §5, §3, §4

[12] = test system: sicklepod (Cassia obtusifolia, CASOB); test: as above; conditions: post-emerge, 14 days after application, rating scale 0-100
From the text: as §1, §2, §5, §3, §4

[13] = test system: velvetleaf (Abutilon theophrasti, ABUTH); test: as above; conditions: post-emerge, 14 days after application, rating scale 0-100
From the text: as §1, §2, §5, §3, §4

[14] = test system: ivyleaf morningglory (Ipomoea hederacea, IPOHE); test: as above; conditions: post-emerge, 14 days after application, rating scale 0-100
From the text: as §1, §2, §5, §3, §4

[15] = test system: barnyardgrass (Echinochloa crus-galli, ECHCG); test: as above; conditions: post-emerge, 14 days after application, rating scale 0-100
From the text: as §1, §2, §5, §3, §4

[16] = test system: green foxtail (Setaria viridis, SETVI); test: as above; conditions: post-emerge, 14 days after application, rating scale 0-100
From the text: as §1, §2, §5, §3, §4

[17] = test system: large crabgrass (Digitaria sanguinalis, DIGSA); test: as above; conditions: post-emerge, 14 days after application, rating scale 0-100
From the text: as §1, §2, §5, §3, §4

[18] = test system: redroot pigweed (Amaranthus retroflexus, AMARE); test: as above; conditions: post-emerge, 14 days after application, rating scale 0-100
From the text: as §1, §2, §5, §3, §4

Row | SMILES | phytotoxicity rating AMARE ([1]; 63 g ai/ha) | phytotoxicity rating AMARE ([1]; 250 g ai/ha) | phytotoxicity rating CHEAL ([2]; 63 g ai/ha) | phytotoxicity rating CHEAL ([2]; 250 g ai/ha) | phytotoxicity rating CASOB ([3]; 63 g ai/ha) | phytotoxicity rating CASOB ([3]; 250 g ai/ha) | phytotoxicity rating ABUTH ([4]; 63 g ai/ha) | phytotoxicity rating ABUTH ([4]; 250 g ai/ha) | phytotoxicity rating IPOHE ([5]; 63 g ai/ha) | phytotoxicity rating IPOHE ([5]; 250 g ai/ha) | phytotoxicity rating ECHCG ([6]; 63 g ai/ha) | phytotoxicity rating ECHCG ([6]; 250 g ai/ha) | phytotoxicity rating SETVI ([7]; 63 g ai/ha) | phytotoxicity rating SETVI ([7]; 250 g ai/ha) | phytotoxicity rating DIGSA ([8]; 63 g ai/ha) | phytotoxicity rating DIGSA ([8]; 250 g ai/ha) | other results
1 | COc1c(Cl)cc(F)c(-n2c(=O)cc(C(F)(F)F)n(C)c2=O)c1NC(=O)c1cc2ccccc2cc1C [2-157] | 100 | 100 | 100 | 100 | 30 | 90 | 100 | 100 | 40 | 100 | 30 | 95 | 30 | 70 | 35 | 70 | phytotoxicity rating CORN (crop damage) ([9]; 63 g ai/ha): 0; phytotoxicity rating CORN (crop damage) ([9]; 250 g ai/ha): 45; phytotoxicity rating RICE (crop damage) ([10]; 63 g ai/ha): 30; phytotoxicity rating RICE (crop damage) ([10]; 250 g ai/ha): 70
2 | Cn1c(C(F)(F)F)cc(=O)n(-c2ccc(Cl)cc2NC(=O)c2ccc3ccccc3c2)c1=O [Compound 2-131, 3-[4-chloro-2-(2-naphthoylamino)phenyl]-1-methyl-6-trifluoromethyl-2,4(1H, 3H)-pyrimidinedione] | 90 | 95 | 90 | 100 | 60 | 95 | 85 | 100 | 30 | 85 | 10 | 60 | 40 | 90 | 40 | 80 | CHEAL phytotoxicity rating ([11]; 63 g ai/ha): 100; CHEAL phytotoxicity rating ([11]; 250 g ai/ha): 100; CASOB phytotoxicity rating ([12]; 63 g ai/ha): 80; CASOB phytotoxicity rating ([12]; 250 g ai/ha): 100; ABUTH phytotoxicity rating ([13]; 63 g ai/ha): 100; ABUTH phytotoxicity rating ([13]; 250 g ai/ha): 100; IPOHE phytotoxicity rating ([14]; 63 g ai/ha): 100; IPOHE phytotoxicity rating ([14]; 250 g ai/ha): 100; ECHCG phytotoxicity rating ([15]; 63 g ai/ha): 30; ECHCG phytotoxicity rating ([15]; 250 g ai/ha): 60; SETVI phytotoxicity rating ([16]; 63 g ai/ha): 70; SETVI phytotoxicity rating ([16]; 250 g ai/ha): 90; DIGSA phytotoxicity rating ([17]; 63 g ai/ha): 30; DIGSA phytotoxicity rating ([17]; 250 g ai/ha): 70; AMARE phytotoxicity rating ([18]; 63 g ai/ha): 100; AMARE phytotoxicity rating ([18]; 250 g ai/ha): 100
